The term GI50 denotes the concentration giving 50% growth inhibition. A low value points to more potent growth inhibition.

Data set [1] relates to human tumour cell lines. The data set can be described thus: In vitro cytotoxicity, mean graph midpoints (MG_MID) over human tumour cell lines. It is filed as cell-based. Particulars: for Log10LC50 mean graph midpoint (MG_MID): 50% cell death; for Log10LC50 mean graph midpoint (MG_MID) / Log10GI50 mean graph midpoint (MG_MID) / Log10TGI mean graph midpoint (MG_MID): human tumour cell lines, 48 h exposure, SRB; for cytotoxicity against some cancer cell lines: in words, refers to Table 3; for Log10TGI mean graph midpoint (MG_MID): total cell growth inhibition. The procedure:
Biological Activity: The in vitro cell line studies were carried out at the National Cancer Institute, Maryland, USA.
6b, 6c, 6g, 10a and 10b were evaluated for in vitro anticancer activity against sixty human tumour cells derived from nine cancer types (leukemia, non-small-cell lung, colon, CNS, melanoma, ovarian, prostate, renal and breast cancer) as shown in (Table 1 and 2). For the compound, dose response curves for each cell line were measured at a minimum of five concentrations at 10 fold dilutions. A protocol of 48 h continuous drug exposure was used and a sulforhodamine B (SRB) protein assay was used to estimate cell viability or growth. The concentration causing 50% cell growth inhibition (GI50), total cell growth inhibition (TGI 0% growth) and 50% cell death (LC50, −50% growth) compared with the control was calculated.

Data set [2] has as its system TK-10 (Renal). As to the kind of experiment: Cytotoxicity in selected cancer cell lines (SRB, 48 h). It is filed as cell-based, human. The procedure, abridged: (§1)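 Dose–response curves were built from at least five tenfold-diluted concentrations, with cells exposed to compound without interruption for 48 h. Growth was then estimated by sulforhodamine B staining, and the concentrations giving 50% growth inhibition, total growth inhibition and 50% cell kill were calculated against control.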

Data set [3] relates to UO-31 (Renal). The description is as above. It is filed as cell-based, human. The procedure, abridged: as §1
The test system of data set [4] is UACC-62 (Melanoma). Described as above. It is filed as cell-based, human. The procedure, abridged:
as §1

Data set [5] relates to OVCAR-3 (Ovarian). The data set is described as above. The format is cell-based, human. The procedure, abridged:
as §1

The subject of data set [6] is HCT-15 (Colon). The data set is described as above. The format is cell-based, human. The procedure, abridged: as §1
Data set [7] concerns HL-60(TB) (Leukemia). The data set is described as above. It is filed as cell-based, human.
The subject of data set [8] is CAKI-1 (Renal). The description is as above. The format is cell-based, human. The procedure, abridged:
as §1

Data set [9] relates to 786-0 (Renal). The data set is described as above. The format is cell-based, human. In a few lines:
as §1

Data set [10] deals with A498 (Renal). The data set is described as above. It is filed as cell-based, human. The procedure, abridged:
as §1

The subject of data set [11] is M14 (Melanoma). The description is as above. It is filed as cell-based, human. In a few lines: as §1
Data set [12] deals with RPMI-8226 (Leukemia). The data set is described as above. The format is cell-based, human. The procedure, abridged:
as §1

Data set [13] concerns HCT-116 (Colon). The description is as above. The format is cell-based, human. The procedure, abridged:
as §1

The test system of data set [14] is UACC-257 (Melanoma). The description is as above. It is filed as cell-based, human. In a few lines:
as §1

In data set [15] the test system is NCI-H23 (Non-small cell lung). The description is as above. It is filed as cell-based, human. In a few lines:
as §1

Data set [16] relates to NCI-H522 (Non-small cell lung). The description is as above. The format is cell-based, human. The procedure, abridged:
as §1

The structures appear in SMILES notation.

As to `COc1cc(C=CC(=O)c2c(C)nc3ccccc3c2C)ccc1OCCCCOc1cc2c(cc1OC)C(=O)N1CCC[C@H]1C=N2` [10b, 7-Methoxy-8-{4-[3-(4-hydroxy-3-methoxyphenyl)-1-(2,4-dimethyl-3-quinolyl)-2-propen-1-one]butyl}-oxy-(11aS)-1,2,3,11a-5H-pyrrolo[2,1-c][1,4]benzodiazepin-5-one], in data set [1], the “Log10LC50 mean graph midpoint (MG_MID)” value is −4.46. Besides, the “Log10GI50 mean graph midpoint (MG_MID)” value in data set [1] is on record as −6.86. Further, the “cytotoxicity against some cancer cell lines” value (from here on “cytotoxicity”) in data set [1] is reported as “promising cytotoxicity”. Further, the “Log10TGI mean graph midpoint (MG_MID)” value in data set [1] is given as −6.94. Further, the GI50 was found to be 31.4 µM in data set [2]; 15.2 µM in data set [3]; 22.5 µM in data set [4]; 26.3 µM in data set [5]; 18.4 µM in [6]; 24.5 µM in data set [7]. Moreover, the GI50 amounted to 12.9 µM in data set [8]; 14.9 µM in data set [9]; 19.5 µM in data set [10]; 18.8 µM in data set [11]; 13.8 µM in data set [12]; 14.6 µM in data set [13]. Moreover, the GI50 came out at 15.9 µM in [14], 19.5 µM in data set [15] and 9 µM in data set [16].

On to `COc1cc(C=CC(=O)c2ccc(F)cc2)ccc1OCCCCOc1cc2c(cc1OC)C(=O)N1CCC[C@H]1C=N2` [6b, 7-Methoxy-8-{4-[1-(4-fluorophenyl)-3-(4-hydroxy-3-methoxyphenyl)-2-propen-1-one]butyl}-oxy-(11aS)-1,2,3,11a-5H-pyrrolo[2,1-c][1,4]benzodiazepin-5-one], for which the “Log10LC50 mean graph midpoint (MG_MID)” value in data set [1] is −4.59. Moreover, the “Log10GI50 mean graph midpoint (MG_MID)” value in data set [1] is given as −6.83. For the same compound, in data set [1], the “cytotoxicity” value was “promising cytotoxicity”. Besides, the “Log10TGI mean graph midpoint (MG_MID)” value in data set [1] is given as −6.81. Further, the GI50 in [2] was found to be 16.6 µM; in data set [3], 19.2 µM; in data set [4], 10 µM; in data set [5], 37 µM; in data set [6] it was 28.5 µM; in [7] it was 29 µM. Further, the GI50 in [8] is 13.6 µM; in data set [9] it was 19.8 µM; in data set [10] it was 26.1 µM; in [11], 10.1 µM; in data set [12], 13 µM; in [13], 11.2 µM. The results for the GI50 in [14], in data set [15] and in [16] were 70.9 µM, 19.2 µM and 11.5 µM, respectively.

In the case of `COc1cc(C=CC(=O)c2c(C)nc3ccccc3c2C)ccc1OCCCOc1cc2c(cc1OC)C(=O)N1CCC[C@H]1C=N2` [10a, 7-Methoxy-8-{3-[3-(4-hydroxy-3-methoxyphenyl)-1-(2,4-dimethyl-3-quinolyl)-2-propen-1-one]propyl}-oxy-(11aS)-1,2,3,11a-5H-pyrrolo[2,1-c][1,4]benzodiazepin-5-one], in [1], the “Log10LC50 mean graph midpoint (MG_MID)” value is given as −4.43. Moreover, the “Log10GI50 mean graph midpoint (MG_MID)” value in [1] is recorded as −6.94. Besides, the “cytotoxicity” value in data set [1] was “promising cytotoxicity”. Besides, the “Log10TGI mean graph midpoint (MG_MID)” value in data set [1] was −6.90. Moreover, the GI50 was determined as 33.2 µM in data set [2]; 21.6 µM in data set [3]; 15.1 µM in data set [4]; 24.9 µM in data set [5]; 29.7 µM in [6]; 25.2 µM in [7]. The GI50 in data set [8] came to 15.8 µM; in data set [9], 17.3 µM; in [10], 20.1 µM; in data set [11] it was 14.5 µM; in [12] it was 15 µM; in data set [13] it was 21 µM. In addition, the GI50 turned out to be 22.9 µM in [14], 24.1 µM in [15] and 10.8 µM in [16].

For `COc1cc(C=CC(=O)c2ccc(F)cc2)ccc1OCCCCCOc1cc2c(cc1OC)C(=O)N1CCC[C@H]1C=N2` [6c, 7-Methoxy-8-{5-[1-(4-fluorophenyl)-3-(4-hydroxy-3-methoxyphenyl)-2-propen-1-one]pentyl}-oxy-(11aS)-1,2,3,11a-5H-pyrrolo[2,1-c][1,4]benzodiazepin-5-one], in data set [1], the “Log10LC50 mean graph midpoint (MG_MID)” value is recorded as −4.61. Further, the “Log10GI50 mean graph midpoint (MG_MID)” value in data set [1] is −6.86. In data set [1], the “cytotoxicity” value is given as “promising cytotoxicity”. Moreover, in [1], the “Log10TGI mean graph midpoint (MG_MID)” value is on record as −6.79. The GI50 in data set [2] turned out to be 38.2 µM; in data set [3], 21.1 µM; in data set [4], 15.1 µM; in [5] it was 34.3 µM; in [6], 29.3 µM; in data set [7] it was 28.2 µM. The GI50 in data set [8] is 15.8 µM; in data set [9] it was 18.4 µM; in [10], 20.1 µM; in data set [11] it was 14.5 µM; in [12], 16.4 µM; in data set [13] it was 21 µM. Further, the GI50 was found to be 22.9 µM in data set [14], 15.8 µM in data set [15] and 65.3 µM in data set [16].

Values taken from US8461150B2, “Chalcone linked pyrrolo[2,1-c][1, 4]benzodiazepine hybrids as potential anticancer agents and process for the preparation thereof” (Council of Scientific & Industrial Research, priority 2008, dated 2013).
